Reference: patent US8247230B2, “Plant stem cell line derived from cambium of herbaceous plant with storage root and method for isolating the same” (Unhwa Corporation, priority 2007, dated 2012)

Legend:
[1] = system: carrot root cambium-containing explant; assay: Cell line induction in carrot explant with varying kinds of auxins in induction medium; type: cell-based, Daucus carota L.; conditions: for Cell line induction pattern (in words): auxin used in induction medium; for Reaction with respect to cambium: auxins at the same concentration in induction medium, after osmotic stress
Method: A carrot (Daucus carota L.) was prepared and surface-sterilized in the same manner as in Example 1-1. Then, the prepared sample was treated with osmotic stress in the same manner as in Example 1-2 and Example 1-3, and then a cambium-derived cell line was induced from the carrot.
Also, other plant hormone auxins, including IAA, IBA, picloram, 2,4-D, CPA and NAA, were used at the same concentration to examine the influence of the hormone used in induction medium.

[2] = system: ginseng root cambium-containing explant; assay: Cell induction in ginseng explant cultured in 2,4-D-containing medium; type: cell-based; conditions: about 7-14 days after yellowing
Method: Meanwhile, in order to examine the influence of the hormone used in the induction medium, the explant was cultured in a 2,4-D-containing medium, which was not the cambium-derived cell line induction medium and has been used in the conventional culture of general ginsengs. […] In other words, it could be seen that, when 2,4-D was used, cell line was induced all other tissues, non-specifically to the cambium.
As shown in FIG. 3(b), when a general culture system containing 2,4-D was used in culture, cells were induced from various tissues (cortex, phloem, xylem, cambium, pith, etc.) present in the entire cross section, and the various cells were mixed with each other. Thus, the induced and proliferated cells had heterogeneity. […] Thus, the induced cells had homogeneity.

[3] = system: ginseng cambium-derived cell line; assay: Proliferation of ginseng cambium-derived cell line in growth medium; type: cell-based; conditions: growth medium containing IAA, not 2,4-D
Method: As shown in FIG. 3(a), after the explant was cultured in medium 2 of Example 1 to necrotize tissues other than the cambium, it was subcultured in medium 3. Medium 3 is an optimal medium for the proliferation of the cambium-derived cell line and is based on the basal salt composition shown in Table 6. When the cambium-derived homogeneous cell line having the ability to divide was cultured in medium 3, it continually divided and proliferated. After about 10-20 days of the culture, the cambium-derived cell line was isolated, and the isolated cell line was allowed to proliferate again in the same medium (medium 3).

[4] = system: true wild ginseng adventitious root cambium-derived cell line; assay: Proliferation of true wild ginseng adventitious root cambium-derived cell line in growth medium; type: cell-based; conditions: hormone used instead of 2,4-D in medium 3
Description: As a result, the cambium-derived homogeneous cell line having the ability to divide continually divided and proliferated, and thus after about 10-20 days of the culture, the cambium-derived homogeneous cell line having the ability to divide could be isolated. The true wild ginseng cambium-derived homogeneous cell line thus isolated was allowed to proliferate again by culturing it in the same medium. […] Meanwhile, in the true wild ginseng adventitious root cambium-containing explant in Example 2-1, the cell line was allowed to proliferate in the same manner as in Example 2, except that IBA was used instead of 2,4-D in Table 7.

[5] = system: MMP-1; assay: Inhibition of MMP-1 expression caused by UV light (UVB) in NHF cells; type: cell-based, human; conditions: 10 uM, 40 mJ UVB, 48 hours, No UV = 100, Control UV = 230
Method: When MMPs are increased due to exposure to UV light, the increased MMPs degrade skin collagen to form skin wrinkles. Thus, the following test was carried out in order to examine whether MMP-1 expression increased due to UV light is inhibited by an extract or culture medium of the true wild ginseng cambium-derived homogeneous cell line.
NHF (normal human fibroblast) cells used in the test were isolated from the fetal penis prepuce and cultured. The culture medium was prepared by adding 10% fetal bovine serum (FBS, Hyclone, Logan, Utah, USA), inactivated by heating at 56° C. for 30 minutes, 100 unit/ml of penicillin, 100 μg/ml of streptomycin and 300 μg/ml of glutamine to DMEM medium (Invitroge Gibco life tech. Vienna, Austriea). The cells were cultured in the medium in a 5% CO2 incubator at a temperature of 37° C. and a humidity of 95% and subcultured at 3-4-day intervals, immediately before the cells were fused with each other.
NHF(p6) cells were dispensed into a 12-well plate at a density of 75,000 cells/well and starved for 24 hours. Then, the cells were radiated with 40 mJ of UVB and treated with varying concentrations of each sample for 48 hours. Then, an experiment was carried out using a kit (Amersham, RPN 2610). As a positive control group, 10 μM retinoic acid was used. […]

| SMILES | Cell line induction pattern (in words) [1] | Reaction with respect to cambium [1] | further results |
| --- | --- | --- | --- |
| O=C(O)COc1ccc(Cl)cc1Cl [2,4-D, 2,4-dichlorophenoxyacetic acid] | the cell line was induced throughout the whole explant rather than with respect to the cambium | − | Cell induction pattern (in words) [2]: cells were induced throughout the whole cross section |
| O=C(O)COc1ccc(Cl)cc1 [CPA] | the cell line was induced throughout the whole explant rather than with respect to the cambium | − |  |
| O=C(O)Cc1c[nH]c2ccccc12 [IAA, indole-3-acetic acid] | the homogeneous cell line was induced with respect to the cambium |  | Proliferation in growth medium (in words) [3]: did not proliferate and showed a tendency to differentiate; Proliferation in growth medium (in words) [4]: did not differentiate and showed a tendency to differentiate |
| O=C(O)CCCc1c[nH]c2ccccc12 [IBA, indole-3-butyric acid] | the homogeneous cell line was induced with respect to the cambium |  | Proliferation in growth medium (in words) [4]: did not differentiate and proliferated |
| O=C(O)Cc1cccc2ccccc12 [NAA] | the cell line was induced throughout the whole explant rather than with respect to the cambium | − | Root induction with the passage of time (in words) ([1]; after about 4 weeks): a root was induced and differentiated in the cambium |
| Nc1c(Cl)c(Cl)nc(C(=O)O)c1Cl [Picloram, picloram] | the cell line was induced throughout the whole explant rather than with respect to the cambium | − |  |
| CC1=C(/C=C/C(C)=C/C=C/C(C)=C/C(=O)O)C(C)(C)CCC1 [Retinoic acid, retinoic acid] |  |  | MMP-1 expression, % of control [5]: 85 % of control |
